In patent US20130072553A1, “DRUGS, DERIVATIVES AND ANALOGS CONTAINING ADAMANTANE STRUCTURES OF NEW INDICATION APPLICATIONS OF ANTI-TUMOR” (priority 2009, published 2013):
Where two headings read alike, the source gives them in different places.

How the values were obtained:
[1] = tested on: human colorectal cancer cell line HT29; assay: In vitro anti-cancer cell experiment (MTT), colorectal cancer HT29; format: cell-based
Experimental: (§1) Cell lines: Human pancreatic cancer cell line Panc-1, human colorectal cancer cell line HT29, human lung cancer cell line NCI-H460 and human breast cancer cell line MCF7; the medium: s DMEM (Gibco BRL), containing 10% fetal calf serum (Gibco BRL) and 2 mM L-glutamine (Gibco BRL).
(§2) The samples were dissolved in dimethyl sulfoxide (DMSO, Sigma, United States) and medium was added to the final concentration of 0.5%. cyclophosphamide was as positive control (CTX, purity>96%).
(§3) Method: cells were digested with trypsin and dispersed into single cells in the medium containing penicillin (25 U/ml) and streptomycin (25 μg/ml). The cells were seeded in 96-well culture plates (Corning Incorporated), at 37° C., with 5% CO2 present for 24 hours. The culture medium was removed, 1-100 μm test compounds were added, cultured for 48 hours. Culture medium was removed and […] (MTT, USA Sigma products) was added. The result was assayed by SK601-based microplate reader (Japan Seikagaku company's products), 570 nm/630 nm optical density (OD). Cell viability determined by the formula: (Experimental group OD/control OD)×100%; CDDP and the positive control subjects treated in the same material simultaneously.

[2] = tested on: Human pancreatic cancer cell line Panc-1; assay: In vitro anti-cancer cell experiment (MTT), pancreatic cancer Panc-1; format: cell-based
Experimental: as §1, §2, §3

[3] = tested on: human lung cancer cell line NCI-H460; assay: In vitro anti-cancer cell experiment (MTT), lung cancer NCI-H460; format: cell-based
Experimental: as §1, §2, §3

[4] = tested on: human breast cancer cell line MCF7; assay: In vitro anti-cancer cell experiment (MTT), breast cancer MCF7; format: cell-based
Experimental: as §1, §2, §3

[5] = Body weight of S180 tumor-bearing mice
Experimental: (§4) Xenografts cultured S180 tumor cells were implanted subcutaneously into the flank region of mice and tumors were allowed to grow to the desired average size of 100 mg. The mice were randomized into control and treatment groups with 10 mice per group. The control group was injected with the vehicle used to dissolve the drug. […] Injections were I.V. via the tailvein.
(§5) The test group inoculated tumor cells […] in mice armpit, administration and observation of seven days.

mice sarcoma S180 = assay: Inhibition of the sarcoma growth S180 in mice; format: in vivo; details: for anti-tumor efficacy in vivo: iv; for inhibition compared with positive control cyclophosphamide / inhibition rate compared with positive control 5-FU: by tumor weight, seven days
Experimental: Tumor strains: mice sarcoma S180 for ascites passaged from Beijing Academy of Military Medical Institute of Pharmacology.
as §4, §5

[6] = MCF7, 48 h, read-out: IC50 with 95% confidence limits, inhibitory effect on breast cancer MCF7 cells
[7] = HT-29, HT29 cells, 48 hours, MTT, value (95% confidence limits), read-out: IC50 and 95% confidence limit, anti-proliferative effect on HT29
[8] = HT-29 cells, 48 hours, MTT, read-out: IC50 Colorectal cancer HT-29
[9] = Panc-1 cells, 48 hours, MTT, read-out: IC50 Pancreatic cancer Panc-1
[10] = Panc-1 cells, 48 hours, MTT, value (95% confidence limits), read-out: IC50 and 95% confidence limits, anti-proliferative effect on Panc-1
[11] = NCI-H460 cells, 48 hours, MTT, read-out: IC50 Lung cancer NCI-H460
[12] = NCI-H460 cells, 48 hours, MTT, value (95% confidence limits), unit given only for CTX, read-out: IC50 and 95% confidence limits, inhibitory effect on lung cancer NCI-H460 cells
[13] = MCF7 cells, 48 hours, MTT, read-out: IC50 Breast cancer MCF7
[14] = MCF7 cells, 48 hours, MTT, value (95% confidence limits), unit given only for CTX, read-out: IC50 with 95% confidence limits, inhibitory effect on breast cancer MCF7 cells

Row | Compound | IC50 [1, 7] | IC50 [1, 8] | IC50 [2, 9] | IC50 [2, 10] | IC50 [3, 11] | IC50 [3, 12] | IC50 [4, 13] | IC50 [4, 14] | anti-tumor efficacy in vivo (mice sarcoma S180) | body Weight/g After ad. ([5]; mouse, in vivo, iv) | body Weight/g Before ad. ([5]; mouse, in vivo, iv) | inhibition compared with positive control cyclophosphamide (mice sarcoma S180) | inhibition rate compared with positive control 5-FU (mice sarcoma S180) | other results
1 | O=P1(N(CCCl)CCCl)NCCCO1 (centres unmarked) [CTX, cyclophosphamide] | – | – | – | – | – | – | – | – | – | – | – | – | – | IC50 ([1]; HT-29, 48 h, read-out: IC50 Colorectal cancer HT-29): 2.26 µM; IC50 ([1]; HT-29, 48 h, read-out: IC50 and 95% confidence limit, anti-proliferative effect on HT29): 2.26 µg/mL; IC50 ([2]; PANC-1, 48 h, read-out: IC50 Pancreatic cancer Panc-1): 2.23 µM; IC50 ([2]; PANC-1, 48 h, read-out: IC50 and 95% confidence limits, anti-proliferative effect on Panc-1): 2.23 µg/mL; IC50 ([3]; NCI-H460, 48 h, read-out: IC50 Lung cancer NCI-H460): 4.3 µM; IC50 ([3]; NCI-H460, 48 h, read-out: IC50 and 95% confidence limits, inhibitory effect on lung cancer NCI-H460 cells): 4.3 µg/mL; IC50 ([4]; MCF7, 48 h, read-out: IC50 Breast cancer MCF7): 0.92 µM; IC50 [4, 6]: 0.92 µg/mL; body Weight/g After ad. ([5]; after administration, iv, seven days, X ± SD): 28.22 ± 2.46 g; body Weight/g Before ad. ([5]; before administration (baseline), iv groups, X ± SD): 22.45 ± 0.79 g
2 | NC12CC3CC(CC(C3)C1)C2 [Compound 1, Amantadine] | 18.8 µg/mL | 18.8 µM | 51.3 µM | 51.3 µg/mL | 5.18 µM | 5.18 µg/mL | 6.18 µM | – | statistically significant | 27.93 ± 3.37 g | 21.41 ± 2.52 g | – | – | IC50 [4, 6]: 6.18 µg/mL
3 | CC12CC3CC(C)(C1)CC(N)(C3)C2 [Compound 3, Memantine] | 13.1 µg/mL | 13.1 µM | 53 µM | 53 µg/mL | 60.5 µM | 60.5 µg/mL | 34.3 µM | 34.3 µg/mL | statistically significant | 28.98 ± 1.74 g | 21.31 ± 1.53 g | significantly better than the positive control group of cyclophosphamide | better than the positive control group, 5-FU | –
4 | O=c1[nH]cc(F)c(=O)[nH]1 [Compound 5-FU, 5-fluorouracil] | – | – | – | – | – | – | – | – | – | 29.16 ± 2.50 g | 21.61 ± 1.56 g | – | – | –
5 | O=C1C2CC3CC1CC(O)(C3)C2 [Compound 6, Idramantone] | – | – | 53.5 µM | 53.5 µg/mL | – | – | – | – | statistically significant | 26.30 ± 3.62 g | 19.92 ± 1.47 g | – | – | –

Now from value to compound, other results behind:

Row | IC50 [1, 7] | IC50 [1, 8] | IC50 [2, 9] | IC50 [2, 10] | IC50 [3, 11] | IC50 [3, 12] | IC50 [4, 13] | IC50 [4, 14] | Compound | anti-tumor efficacy in vivo (mice sarcoma S180) | body Weight/g After ad. ([5]; mouse, in vivo, iv) | body Weight/g Before ad. ([5]; mouse, in vivo, iv) | inhibition compared with positive control cyclophosphamide (mice sarcoma S180) | inhibition rate compared with positive control 5-FU (mice sarcoma S180) | other results
6 | 3.92 µg/mL | 3.92 µM | 2.42 µM | 2.42 µg/mL | 22 µM | 22 µg/mL | 2.73 µM | 2.73 µg/mL | CC(N)C12CC3CC(CC(C3)C1)C2 (centres unmarked) [Compound 2, Rimantadine] | statistically significant | 26.02 ± 3.69 g | 19.35 ± 0.95 g | significantly better than the positive control group of cyclophosphamide | better than the positive control group, 5-FU | –
7 | 10.2 µg/mL | 10.2 µM | 10 µM | 10 µg/mL | 8.52 µM | 8.52 µg/mL | 67.5 µM | 67.5 µg/mL | CN(C)CCOCC(=O)NC12CC3CC(CC(C3)C1)C2 [Compound 4, Tromantadine] | statistically significant | 28.64 ± 4.13 g | 21.03 ± 0.29 g | – | better than the positive control group, 5-FU | –
8 | 0.85 µg/mL | 0.85 µM | 2.17 µM | 2.17 µg/mL | 2.81 µM | 2.81 µg/mL | – | – | COc1ccc(-c2ccc3cc(C(=O)O)ccc3c2)cc1C12CC3CC(CC(C3)C1)C2 [Compound 5, Adapalene] | statistically significant | 20.80 ± 3.61 g | 20.27 ± 1.80 g | significantly better than the positive control group of cyclophosphamide | better than the positive control group, 5-FU | –
